# Measured values as given in ChEMBL document CHEMBL3112460, “Successful reduction of off-target hERG toxicity by structural modification of a T-type calcium channel blocker” (Bioorg Med Chem Lett, 2014).
# Assays:
# [1] = target: Voltage-dependent T-type calcium channel subunit alpha-1G (Homo sapiens, UniProt O43497); assay: Inhibition of T-type calcium channel subunit alpha-1G (unknown origin) expressed in HEK293 cells assessed as inactivation of channel current at holding potential of 30 to 100mV by whole-cell patch clamp method; format: cell-based
# Chain of Voltage-dependent T-type calcium channel subunit alpha-1G (O43497 whole entry): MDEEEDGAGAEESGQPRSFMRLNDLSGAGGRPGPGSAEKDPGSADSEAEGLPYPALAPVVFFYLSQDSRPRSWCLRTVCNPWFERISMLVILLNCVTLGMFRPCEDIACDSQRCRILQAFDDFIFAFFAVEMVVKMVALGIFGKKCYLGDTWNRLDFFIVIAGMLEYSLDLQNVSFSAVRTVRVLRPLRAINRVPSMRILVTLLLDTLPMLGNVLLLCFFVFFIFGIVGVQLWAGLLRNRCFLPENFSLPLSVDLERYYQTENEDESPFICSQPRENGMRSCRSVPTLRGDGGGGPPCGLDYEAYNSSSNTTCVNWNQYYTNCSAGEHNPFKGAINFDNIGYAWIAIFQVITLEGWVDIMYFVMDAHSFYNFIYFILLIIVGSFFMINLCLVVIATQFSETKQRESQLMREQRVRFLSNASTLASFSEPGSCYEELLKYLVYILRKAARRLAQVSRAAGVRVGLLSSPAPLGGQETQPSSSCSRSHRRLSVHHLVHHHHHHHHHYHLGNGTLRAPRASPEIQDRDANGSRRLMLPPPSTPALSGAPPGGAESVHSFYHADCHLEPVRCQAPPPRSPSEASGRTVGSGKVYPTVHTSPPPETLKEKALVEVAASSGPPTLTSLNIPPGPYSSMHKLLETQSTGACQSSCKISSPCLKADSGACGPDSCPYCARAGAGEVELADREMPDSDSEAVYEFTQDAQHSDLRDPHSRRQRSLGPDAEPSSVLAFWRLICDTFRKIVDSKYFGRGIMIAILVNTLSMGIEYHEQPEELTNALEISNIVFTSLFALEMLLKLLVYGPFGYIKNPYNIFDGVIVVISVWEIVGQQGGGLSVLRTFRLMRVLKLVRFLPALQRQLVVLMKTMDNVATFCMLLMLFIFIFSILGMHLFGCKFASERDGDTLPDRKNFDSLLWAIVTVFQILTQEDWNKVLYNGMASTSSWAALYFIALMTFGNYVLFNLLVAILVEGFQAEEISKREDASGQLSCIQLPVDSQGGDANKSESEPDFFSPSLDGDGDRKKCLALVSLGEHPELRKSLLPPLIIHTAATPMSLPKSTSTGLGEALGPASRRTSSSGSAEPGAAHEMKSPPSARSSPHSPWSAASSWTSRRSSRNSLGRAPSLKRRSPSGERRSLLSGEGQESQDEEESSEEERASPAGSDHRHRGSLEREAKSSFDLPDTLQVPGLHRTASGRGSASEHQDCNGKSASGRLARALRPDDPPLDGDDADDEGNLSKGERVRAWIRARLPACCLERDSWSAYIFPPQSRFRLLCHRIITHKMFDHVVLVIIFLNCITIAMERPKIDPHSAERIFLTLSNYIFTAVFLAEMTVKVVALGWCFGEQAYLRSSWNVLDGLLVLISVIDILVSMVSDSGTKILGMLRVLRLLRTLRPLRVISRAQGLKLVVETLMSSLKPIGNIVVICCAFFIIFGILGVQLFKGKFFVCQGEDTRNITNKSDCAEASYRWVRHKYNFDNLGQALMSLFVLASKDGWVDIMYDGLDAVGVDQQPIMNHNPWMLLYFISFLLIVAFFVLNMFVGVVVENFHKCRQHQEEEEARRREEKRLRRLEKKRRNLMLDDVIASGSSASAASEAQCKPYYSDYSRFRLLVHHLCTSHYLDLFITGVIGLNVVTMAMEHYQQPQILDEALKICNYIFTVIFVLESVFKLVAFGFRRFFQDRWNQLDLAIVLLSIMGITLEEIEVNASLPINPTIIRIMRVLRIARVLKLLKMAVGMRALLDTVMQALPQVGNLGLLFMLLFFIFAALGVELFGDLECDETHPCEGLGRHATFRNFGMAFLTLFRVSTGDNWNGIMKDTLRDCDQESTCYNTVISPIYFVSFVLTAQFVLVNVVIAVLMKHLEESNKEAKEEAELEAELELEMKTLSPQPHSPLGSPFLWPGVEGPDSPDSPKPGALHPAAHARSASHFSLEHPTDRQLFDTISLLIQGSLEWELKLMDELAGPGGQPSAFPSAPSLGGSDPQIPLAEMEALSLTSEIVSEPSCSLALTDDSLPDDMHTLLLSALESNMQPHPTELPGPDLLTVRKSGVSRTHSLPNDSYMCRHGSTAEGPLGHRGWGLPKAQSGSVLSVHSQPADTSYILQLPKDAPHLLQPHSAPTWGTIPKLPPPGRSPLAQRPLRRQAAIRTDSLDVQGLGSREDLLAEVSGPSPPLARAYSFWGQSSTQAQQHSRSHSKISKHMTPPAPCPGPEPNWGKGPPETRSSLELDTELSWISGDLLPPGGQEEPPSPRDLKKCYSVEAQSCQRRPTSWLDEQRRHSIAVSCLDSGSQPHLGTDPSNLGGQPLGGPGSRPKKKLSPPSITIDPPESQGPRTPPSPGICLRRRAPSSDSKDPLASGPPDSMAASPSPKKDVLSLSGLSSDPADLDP
# [2] = Cmax in Sprague-Dawley rat at 10 mg/kg, po; format: ADME, organism-based; parameters: dose 10 mg/kg, route oral; details: in vivo
# [3] = AUC (0 to infinity) in Sprague-Dawley rat at 10 mg/kg, iv; format: ADME, organism-based; parameters: time infinity, dose 10 mg/kg, route intravenous; details: plasma
# Plasma = assay: Metabolic stability in rat plasma after 2 hrs; format: ADME, cell-free
# [4] = AUC (0 to infinity) in Sprague-Dawley rat at 10 mg/kg, po; format: ADME, organism-based; parameters: time infinity, dose 10 mg/kg, route oral; details: plasma
# [5] = Half life in Sprague-Dawley rat at 10 mg/kg, iv; format: ADME, organism-based; parameters: dose 10 mg/kg, route intravenous; details: in vivo
# [6] = Half life in human microsomes; format: ADME, Microsome
# [7] = Bioavailability in Sprague-Dawley rat at 10 mg/kg, […]; format: ADME, organism-based; details: in vivo
# [8] = target: Voltage-dependent L-type calcium channel subunit alpha-1C (Homo sapiens, UniProt Q13936); assay: Inhibition of L-type calcium channel subunit-1C (unknown origin) expressed in HEK293 cells by whole-cell patch clamp method; format: cell-based
# [9] = Half life in Sprague-Dawley rat at 10 mg/kg, po; format: ADME, organism-based; parameters: dose 10 mg/kg, route oral; details: in vivo
# [10] = Tmax in Sprague-Dawley rat at 10 mg/kg, po; format: ADME, organism-based; parameters: dose 10 mg/kg, route oral; details: in vivo
# [11] = target: Voltage-gated inwardly rectifying potassium channel KCNH2 (Homo sapiens, UniProt Q12809); assay: Inhibition of human ERG by whole-cell patch clamp method
# Chain of Voltage-gated inwardly rectifying potassium channel KCNH2 (Q12809 whole entry): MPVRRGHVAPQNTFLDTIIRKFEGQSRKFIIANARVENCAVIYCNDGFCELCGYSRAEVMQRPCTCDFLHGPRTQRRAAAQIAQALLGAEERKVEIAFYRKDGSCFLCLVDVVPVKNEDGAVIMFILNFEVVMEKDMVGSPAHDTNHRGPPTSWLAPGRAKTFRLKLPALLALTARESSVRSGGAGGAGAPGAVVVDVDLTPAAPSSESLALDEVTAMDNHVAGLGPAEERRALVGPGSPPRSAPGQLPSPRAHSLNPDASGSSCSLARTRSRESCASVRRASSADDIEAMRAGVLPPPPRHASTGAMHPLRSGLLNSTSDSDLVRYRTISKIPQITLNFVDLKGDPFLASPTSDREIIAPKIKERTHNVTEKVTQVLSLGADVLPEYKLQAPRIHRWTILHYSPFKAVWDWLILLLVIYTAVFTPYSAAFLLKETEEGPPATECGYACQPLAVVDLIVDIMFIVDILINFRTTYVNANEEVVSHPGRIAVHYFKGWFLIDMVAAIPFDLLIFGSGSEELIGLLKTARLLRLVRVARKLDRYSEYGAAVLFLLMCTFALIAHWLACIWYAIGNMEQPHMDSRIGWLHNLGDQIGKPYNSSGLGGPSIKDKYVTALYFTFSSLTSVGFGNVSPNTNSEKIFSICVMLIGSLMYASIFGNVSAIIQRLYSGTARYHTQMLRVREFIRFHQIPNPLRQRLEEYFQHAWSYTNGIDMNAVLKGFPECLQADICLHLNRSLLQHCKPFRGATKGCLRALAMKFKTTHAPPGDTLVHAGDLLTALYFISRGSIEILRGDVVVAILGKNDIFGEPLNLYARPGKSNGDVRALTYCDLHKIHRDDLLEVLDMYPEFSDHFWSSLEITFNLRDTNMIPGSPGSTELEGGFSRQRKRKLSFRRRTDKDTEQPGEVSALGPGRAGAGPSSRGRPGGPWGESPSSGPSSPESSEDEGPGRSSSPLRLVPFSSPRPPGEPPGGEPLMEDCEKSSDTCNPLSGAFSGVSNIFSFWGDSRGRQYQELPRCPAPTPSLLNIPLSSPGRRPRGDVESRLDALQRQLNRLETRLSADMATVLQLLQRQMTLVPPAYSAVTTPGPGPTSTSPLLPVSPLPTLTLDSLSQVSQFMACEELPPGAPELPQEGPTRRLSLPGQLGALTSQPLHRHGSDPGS
# HEK293 [12] = assay: Selectivity ratio of IC50 for L-type calcium channel subunit-1C (unknown origin) to IC50 for T-type calcium channel subunit alpha-1G (unknown origin) expressed in HEK293 cells; format: cell-based; details: Homo sapiens
# HEK293 [13] = assay: Selectivity ratio of IC50 for human ERG to IC50 for T-type calcium channel subunit alpha-1G (unknown origin) expressed in human HEK293 cells; format: cell-based
smiles,measurement,setting,value
COC(=O)C(CCC(=O)N1CCN(c2ccccc2OC)CC1)(c1ccc(Br)cc1)C(C)C (stereo unspecified),IC50,[1],0.654 µM
same,Cmax,[2],218 ng/mL
same,AUC(0-inf),[3],5080 ng·h/mL
same,Stability,Plasma,Stable
same,AUC(0-inf),[4],467 ng·h/mL
same,half-life,[5],4.9 h
same,half-life,[6],3.67 h
same,bioavailability,[7],9.2%
same,IC50,[8],5.9 µM
same,half-life,[9],2.21 h
same,Tmax,[10],0.5 h
COC(=O)C(CCCN1CC=C(c2ccccc2OC)CC1)(c1ccc(Br)cc1)C(C)C (stereo unspecified),IC50,[1],3.24 µM
same,IC50,[11],1.26 µM
CC(C)C(CCCN(C)CCCc1nc2ccccc2[nH]1)(C(=O)O)c1ccc(Br)cc1 (stereo unspecified),IC50,[1],1.36 µM
same,IC50,[11],2.34 µM
COC(=O)C(CCC(=O)N(C)CCCc1nc2ccccc2[nH]1)(c1ccc(Br)cc1)C(C)C (stereo unspecified),IC50,[1],0.056 µM
same,Cmax,[2],4580 ng/mL
same,AUC(0-inf),[3],9620 ng·h/mL
same,Stability,Plasma,Stable
same,AUC(0-inf),[4],5800 ng·h/mL
same,half-life,[5],1.76 h
same,half-life,[6],4 h
same,IC50,[11],12.5 µM
same,bioavailability,[7],60.3%
same,IC50,[8],5.42 µM
same,Ratio IC50,HEK293 [12],96.8
same,half-life,[9],0.795 h
same,Ratio IC50,HEK293 [13],> 220
same,Tmax,[10],0.5 h
COC(=O)C(CCCN(C)CCCc1nc2ccccc2[nH]1)(c1ccc(Br)cc1)C(C)C (stereo unspecified),AUC(0-inf),[3],906 ng·h/mL
same,Stability,Plasma,Stable
same,half-life,[5],1.3 h
same,half-life,[6],2 h
COC(=O)C(CCCN1CCC(c2ccccc2OC)CC1)(c1ccc(Br)cc1)C(C)C (stereo unspecified),IC50,[1],2.65 µM
COc1ccccc1N1CCN(CCCC(C(=O)O)(c2ccc(Br)cc2)C(C)C)CC1 (stereo unspecified),IC50,[1],3.26 µM
same,IC50,[11],3.96 µM
